Source: PMC11714206, “Massively Parallel Screening of Toll/Interleukin‐1 Receptor (TIR)‐Derived Peptides Reveals Multiple Toll‐Like Receptors (TLRs)‐Targeting Immunomodulatory Peptides” (Advanced Science, 2024)
Each block holds one substance with its values, some of them ahead of it.

Target: T1, MAL^TIR (Homo sapiens, UniProt P58753)
T1 construct: MAL (residues 79–221); 6xHis; made in house; host or cells: E. coli BL21 (DE3)
Test: T‐Surf phage library (P8 and P3) selection against MAL^TIR, four rounds, NGS read counts
Assay type: binding
Details: for P3_MAL Rank (after) / P3_MAL Rank (before): P3 library; for P8_MAL Rank (after) / P8_MAL Rank (before): P8 library; for Population: 4th round of selection against MAL TIR, share of NGS reads
Experimental: T‐Surf libraries were screened against the immobilized TIR domains of two major human TLR adaptor proteins, MAL^TIR and MyD88^TIR, allowing cross‐species selection of TIR‐binding motifs with 190 946 TIR‐derived peptides in a single binding assay (Scheme 1). Enriched phage pools from the fourth round of selection were analyzed using NGS after barcoding the peptide‐coding regions of the phage pools.
Phage display screening was performed by coating two wells of a 96‐well plate (Maxisorp, Thermo Fisher Scientific) with 100 µL of 5 µg mL^−1 TIR domains overnight; then, the coated wells were blocked with 200 µL of blocking buffer (0.2% BSA in PBS) and set aside for 1 h at 4 °C with gentle shaking. Next, 100 µL of the phage library was added to the wells and incubated for 1 h at room temperature (RT; 20 – 22 °C) with gentle shaking. The plate was washed four times with PBS containing 0.5% Tween‐20; the bound phages were eluted by adding 100 µL of 100 mM HCl to each well. The elute was neutralized with 10 µL of 1.0 M Tris‐HCl (pH 11.0). E. coli TG1 cells were grown to the log phase (A600 = ≈0.6), and 1 mL of the culture was incubated with 100 µL of the eluted phages for 30 min at 37 °C, with shaking at 200 rpm. Next, 1 µL of M13KO7 helper phages was added, followed by incubation for 45 min at 37 °C, with shaking. Subsequently, the cells were transferred to 25 mL of 2× yeast extract tryptone/carbenicillin/kanamycin medium and incubated overnight at 37 °C with shaking at 200 rpm. The amplified phages were precipitated with 20% PEG‐8000/2.5 M NaCl to be used for the next round of selection.
The naïve T‐Surf libraries in P8 and P3 and the enriched phage pools after four rounds were barcoded for NGS as previously described.^[ [59] ^] Briefly, 5 µL of the phage pool was used as a template for 20 cycles of a 50 µL PCR reaction using […] each of forward and reverse barcoded primers and PrimeSTAR Max DNA Polymerase. The PCR products were purified using Expin Gel SV (GeneAll). The NGS samples were quantified using qPCR, following the qPCR Quantification Protocol Guide (KAPA Library Quantification kits for Illumina Sequencing Platform), and qualified using the TapeStation High Sensitivity D1000 ScreenTape (Agilent Technologies). The indexed libraries were further sequenced by Macrogen (Seoul, Republic of Korea) using the NovaSeq platform (Illumina) with 100 bp paired‐end reads. The reads were demultiplexed by barcodes and filtered for an average Phred quality score of at least 30, followed by trimming the flanking consensus sequences using Cutadapt (version 2.3). Peptide sequence populations were analyzed according to the read counts.

[1] = P8_MAL: rank by count after grouping
[2] = P8_MAL: rank by count before grouping
[3] = selection against MAL, rank after grouping
[4] = selection against MAL, rank before grouping
[5] = P3_MAL: rank by count after grouping
[6] = P3_MAL: rank by count before grouping
[7] = selection against MAL, rank by count after grouping
[8] = selection against MAL, rank by count before grouping
[9] = P3_MAL pool: P3 T-Surf phage library
[10] = 4R selection against MAL, rank after grouping
[11] = 4R selection against MAL, rank before grouping
[12] = P8_MAL pool: P8 T-Surf phage library
[13] = selection against MAL TIR, rank by count after grouping
[14] = selection against MAL TIR, rank by count before grouping

T1 sequence (P58753 79-221): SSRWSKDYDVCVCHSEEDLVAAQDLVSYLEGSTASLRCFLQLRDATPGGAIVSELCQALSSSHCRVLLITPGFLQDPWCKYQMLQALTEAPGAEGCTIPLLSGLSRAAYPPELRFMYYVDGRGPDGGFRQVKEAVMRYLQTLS

Rank (after) [5]: 131
Rank (before) [6]: 369
Substance: SSFREGLWRLLELSK

Population [9]: 0.00413%
Substance: MSHLYQGLKNRGI

P8_MAL Rank (after) [3]: 498
P8_MAL Rank (before) [4]: 2582
Substance: TFLGHLYNALVQAGI

Rank (after) [1]: 141
Rank (before) [2]: 836
Substance: AFFWEQLRTVLDHVNDV

P8_MAL Rank (after) [10]: 641
P8_MAL Rank (before) [11]: 1790
Substance: AFYGPLLSLILRDTKM

Population [12]: 0.0034%
Substance: WSYERLVSLILRDTKV

Rank (after) [5]: 403
Rank (before) [6]: 1763
Substance: GRYGELFMTETDVREG

Population [12]: 0.00432%
Substance: WFMNVW*A*FCVIPKX

P8_MAL Rank (after) [3]: 523
P8_MAL Rank (before) [4]: 1314
Substance: WFLFTFLINLTHPTNF

P3_MAL Rank (after) [7]: 704
P3_MAL Rank (before) [8]: 1408
Substance: YAFTGHLHRYLVQRRS

P8_MAL Rank (after) [13]: 277
P8_MAL Rank (before) [14]: 2392
Substance: HFFLDSTEKHSGRNQL

P8_MAL Rank (after) [7]: 681
P8_MAL Rank (before) [8]: 1923
Substance: AFMYTFLINLTHPNNF

P8_MAL Rank (after) [3]: 537
P8_MAL Rank (before) [4]: 1112
Substance: WFFDGLVSLFLGDTKL

P3_MAL Rank (after) [3]: 575
P3_MAL Rank (before) [4]: 3420
Substance: NQWSNELTAAANLRGW

P3_MAL Rank (after) [3]: 504
P3_MAL Rank (before) [4]: 3170
Substance: SSFREGLWRWRELRKK

Rank (after) [5]: 448
Rank (before) [6]: 3119
Substance: SSFREGRWRLPEVSKT

Rank (after) [5]: 455
Rank (before) [6]: 1861
Substance: DLFLSKLSQHLLKREK

P3_MAL Rank (after) [3]: 556
P3_MAL Rank (before) [4]: 2639
Substance: PEKDHGGENAIIKNIE

Rank (after) [1]: 138
Rank (before) [2]: 1605
Substance: AFFWAQLQSMLGNPTM

Rank (after) [5]: 416
Rank (before) [6]: 2085
Substance: LLIYRFVKKRNYLLGH

Rank (after) [1]: 172
Rank (before) [2]: 1269
Substance: WFYERLVSLMLRDKKV

Rank (after) [1]: 118
Rank (before) [2]: 1290
Substance: WFYERLVSLILRNTRV

P8_MAL Rank (after) [13]: 195
P8_MAL Rank (before) [14]: 869
Substance: ARFKDMIINKWRTALT

P8_MAL Rank (after) [13]: 269
P8_MAL Rank (before) [14]: 2441
Substance: SFFWNKLRYHLPAPQH

P3_MAL Rank (after) [10]: 653
P3_MAL Rank (before) [11]: 2489
Substance: RLLKWIETLHQFHSWV

P8_MAL Rank (after) [10]: 606
P8_MAL Rank (before) [11]: 1091
Substance: FTLSVHVRNWLAGAFI

P3_MAL Rank (after) [13]: 208
P3_MAL Rank (before) [14]: 2670
Substance: PNLRPQVLNYLIRTKT

P3_MAL Rank (after) [3]: 523
P3_MAL Rank (before) [4]: 1204
Substance: FMSHLYQGLKIVAFL

Rank (after) [1]: 450
Rank (before) [2]: 1803
Substance: AFLFTFLINLTHPSNF

Population [12]: 0.00309%
Substance: VFLYTFLINLTHPTNF

Rank (after) [5]: 401
Rank (before) [6]: 2818
Substance: HHKAAMAKRWRNMKN

P8_MAL Rank (after) [3]: 556
P8_MAL Rank (before) [4]: 1888
Substance: AFLYTLLNNVLRNPTI

P8_MAL Rank (after) [3]: 543
P8_MAL Rank (before) [4]: 1810
Substance: AFLYSLLISLPETANI

Rank (after) [1]: 102
Rank (before) [2]: 1724
Substance: AFFCAQLKRVLGNPTM

P8_MAL Rank (after) [13]: 249
P8_MAL Rank (before) [14]: 1442
Substance: SFYWRQVSIILGDPTV

P3_MAL Rank (after) [7]: 724
P3_MAL Rank (before) [8]: 2849
Substance: HQSFWARTWAALIAPS

Rank (after) [5]: 95
Rank (before) [6]: 95
Substance: LGKPGVTDEAQETGSL

Rank (after) [1]: 404
Rank (before) [2]: 2727
Substance: KLCWEKFKCFLPSLSR

Rank (after) [5]: 449
Rank (before) [6]: 2320
Substance: RFWERLRYMMPDSSL

Rank (after) [1]: 177
Rank (before) [2]: 909
Substance: LFFWESLKQLLGNPTM

P8_MAL Rank (after) [10]: 671
P8_MAL Rank (before) [11]: 1891
Substance: AFLYNFLLNLTHKPTF

P8_MAL Rank (after) [10]: 579
P8_MAL Rank (before) [11]: 2250
Substance: RNYVAYLFQALANTGI

Rank (after) [1]: 187
Rank (before) [2]: 1155
Substance: WFYERLVSLILRHTKL

P8_MAL Rank (after) [13]: 252
P8_MAL Rank (before) [14]: 2096
Substance: LFFWESLKQLLRRAGL

Population [9]: 0.00564%
Substance: YAFTGHLHRYLV*RGV

Rank (after) [1]: 184
Rank (before) [2]: 992
Substance: HFFWIQLKAFWAKPA

P3_MAL Rank (after) [13]: 271
P3_MAL Rank (before) [14]: 1446
Substance: YAFTGHPHRSLVQRGV

Rank (after) [5]: 410
Rank (before) [6]: 2307
Substance: LKEESWRRALERAGKL

Population [12]: 0.00278%
Substance: WF*ERLVSLILRDTKV

P8_MAL Rank (after) [3]: 547
P8_MAL Rank (before) [4]: 1298
Substance: WFYESLVSLLTRDTKV

Second part, the substance before the results:

Substance: WFYERLVSLILRATQV
Rank (after) [1]: 474
Rank (before) [2]: 1228

Substance: KNLFNEMVSKNIRTYM
P3_MAL Rank (after) [3]: 567
P3_MAL Rank (before) [4]: 3780

Substance: RLLKWKEALKQRAL
P3_MAL Rank (after) [3]: 518
P3_MAL Rank (before) [4]: 2525

Substance: YAFTRHLHRYLVHRGV
P3_MAL Rank (after) [7]: 714
P3_MAL Rank (before) [8]: 1466

Substance: LFWELLRQALGSRNRL
P8_MAL Rank (after) [3]: 488
P8_MAL Rank (before) [4]: 2152

Substance: WFLTAFRVAMEQVADT
P8_MAL Rank (after) [10]: 662
P8_MAL Rank (before) [11]: 1359

Substance: TFLGHLYNSLVQAGTH
P8_MAL Rank (after) [10]: 633
P8_MAL Rank (before) [11]: 2563

Substance: KHSNNDQKWAETASRK
P3_MAL Rank (after) [7]: 765
P3_MAL Rank (before) [8]: 3469

Substance: RNNFIGHLYQALYRI
P8_MAL Rank (after) [7]: 676
P8_MAL Rank (before) [8]: 2274

Substance: SSFSEGLWRRLELSKK
P3_MAL Rank (after) [10]: 594
P3_MAL Rank (before) [11]: 3202

Substance: NELVHVWSSKAHSPVG
P3_MAL Rank (after) [7]: 731
P3_MAL Rank (before) [8]: 3294

Substance: NQWRNSLTAAANLRGW
Rank (after) [5]: 173
Rank (before) [6]: 3340

Substance: RGFLSHLHHALRLNKIEAF
P3_MAL Rank (after) [7]: 747
P3_MAL Rank (before) [8]: 2390

Substance: YAFTGHLHGSLLQRRV
P3_MAL Rank (after) [10]: 670
P3_MAL Rank (before) [11]: 1376

Substance: DHHLDLPLAKRLNRKFW
P3_MAL Rank (after) [3]: 492
P3_MAL Rank (before) [4]: 1922

Substance: YTALTNSGFHAFSDKD
Rank (after) [1]: 456
Rank (before) [2]: 1556

Substance: VRHTFAGYLCVALNRL
Rank (after) [5]: 431
Rank (before) [6]: 1700

Substance: NRWRNALTAAANLSGW
Population [9]: 0.00376%

Substance: RNFGVYLFQALANKGI
Rank (after) [1]: 409
Rank (before) [2]: 2238

Substance: DWCLSKLSQHTLKREK
Rank (after) [5]: 481
Rank (before) [6]: 1908

Substance: RGFLSHLRHHLPAKDQ
P3_MAL Rank (after) [3]: 498
P3_MAL Rank (before) [4]: 2380

Substance: TFLCHQYNALVQAGIH
P8_MAL Rank (after) [13]: 219
P8_MAL Rank (before) [14]: 2547

Substance: KIILDTAARIWGWRQA
P3_MAL Rank (after) [13]: 227
P3_MAL Rank (before) [14]: 3704

Substance: PNLRTKGLNYRMRTKT
Rank (after) [5]: 415
Rank (before) [6]: 2736

Substance: AFFGAQLKSVLGNPPM
P8_MAL Rank (after) [13]: 210
P8_MAL Rank (before) [14]: 1740

Substance: KEVEGWRDALPHRYEP
P3_MAL Rank (after) [13]: 191
P3_MAL Rank (before) [14]: 1095

Substance: NQWRNALTAAAHLSGL
Rank (after) [5]: 157
Rank (before) [6]: 3362

Substance: PYLRTQVLNYLMRTKN
P3_MAL Rank (after) [3]: 499
P3_MAL Rank (before) [4]: 2630

Substance: SICREGLWRLLELSKK
P3_MAL Rank (after) [13]: 284
P3_MAL Rank (before) [14]: 3117

Substance: AFLCTQLNNVTDTPTL
Rank (after) [1]: 442
Rank (before) [2]: 1756

Substance: AFLYTFLISLTHPTNF
Population [12]: 0.00402%

Substance: AFLYTFLINLTRPTNF
Population [12]: 0.0034%

Substance: AFLYTFLINLTRQTNF
Rank (after) [1]: 147
Rank (before) [2]: 1837

Substance: RNFMSHLYQGLKNRGIFTF
P3_MAL Rank (after) [3]: 502
P3_MAL Rank (before) [4]: 2612

Substance: YAFTGHVDRYLVQRGV
P3_MAL Rank (after) [13]: 285
P3_MAL Rank (before) [14]: 1360

Substance: NQCHNAITADMNQTRL
Rank (after) [5]: 402
Rank (before) [6]: 3424

Substance: TFLGHLYNALVQAGKL
P8_MAL Rank (after) [13]: 230
P8_MAL Rank (before) [14]: 2583
